Reference: patent US20080200393A1, “Method and Composition For Treating Angiogenesis and For Preventing Cancer Progression and Metastasis Comprising a Prostate Secretory Protein (Psp94) Family Member” (Ambrillia Biopharma Inc., priority 2004, published 2008)
Where no end group is shown, it is not given here.

Columns and labels:
Assay type in all cases: cell-based
ERK = assay: VEGF-induced ERK phosphorylation in BAEC; details: BAEC (not shown)
VEGFR-2 = biological target: T1, VEGFR-2 (Homo sapiens, UniProt P35968); assay: VEGF-induced VEGFR-2 phosphorylation in HUVEC (immunoprecipitation, Western blot)
T1 construct: host or cells: HUVEC
T1 sequence (P35968 20-1356): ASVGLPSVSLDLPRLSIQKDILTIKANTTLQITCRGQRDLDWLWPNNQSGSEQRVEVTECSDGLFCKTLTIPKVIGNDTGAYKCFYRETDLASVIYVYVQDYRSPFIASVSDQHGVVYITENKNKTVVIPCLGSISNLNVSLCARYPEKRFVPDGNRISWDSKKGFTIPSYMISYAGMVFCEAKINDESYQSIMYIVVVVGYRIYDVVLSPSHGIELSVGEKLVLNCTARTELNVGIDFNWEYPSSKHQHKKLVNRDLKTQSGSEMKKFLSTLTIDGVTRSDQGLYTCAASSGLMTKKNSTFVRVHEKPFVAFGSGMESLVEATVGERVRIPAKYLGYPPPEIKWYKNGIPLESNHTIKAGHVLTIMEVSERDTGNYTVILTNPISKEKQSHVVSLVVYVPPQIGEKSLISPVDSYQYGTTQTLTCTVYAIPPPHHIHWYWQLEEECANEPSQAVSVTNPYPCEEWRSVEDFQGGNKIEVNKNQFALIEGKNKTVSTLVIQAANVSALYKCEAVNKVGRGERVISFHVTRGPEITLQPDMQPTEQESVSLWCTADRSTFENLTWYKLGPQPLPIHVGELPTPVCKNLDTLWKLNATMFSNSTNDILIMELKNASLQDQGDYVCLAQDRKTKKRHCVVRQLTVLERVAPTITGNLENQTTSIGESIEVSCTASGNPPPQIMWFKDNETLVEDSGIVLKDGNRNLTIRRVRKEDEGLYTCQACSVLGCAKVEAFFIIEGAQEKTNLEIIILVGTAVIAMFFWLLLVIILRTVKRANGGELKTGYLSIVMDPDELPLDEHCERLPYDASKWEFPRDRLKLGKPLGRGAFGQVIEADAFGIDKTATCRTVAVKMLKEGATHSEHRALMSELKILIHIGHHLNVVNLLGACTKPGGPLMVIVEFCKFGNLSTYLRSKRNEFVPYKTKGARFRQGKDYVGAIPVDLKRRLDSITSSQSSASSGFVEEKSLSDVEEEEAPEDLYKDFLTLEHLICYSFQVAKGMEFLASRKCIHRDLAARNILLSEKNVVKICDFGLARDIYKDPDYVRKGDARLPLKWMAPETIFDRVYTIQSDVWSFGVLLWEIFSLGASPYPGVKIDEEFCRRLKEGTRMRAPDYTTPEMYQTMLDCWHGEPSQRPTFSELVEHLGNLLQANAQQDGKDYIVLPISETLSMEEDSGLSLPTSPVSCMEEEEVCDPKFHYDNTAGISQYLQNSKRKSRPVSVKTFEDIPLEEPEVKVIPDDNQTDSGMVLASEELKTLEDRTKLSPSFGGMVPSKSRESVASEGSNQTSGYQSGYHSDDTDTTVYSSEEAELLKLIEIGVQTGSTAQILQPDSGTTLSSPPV
Protocol: Immunoprecipitation and immunoblotting procedures. After treatment, cells were washed once with phosphate-buffered saline (PBS) containing 1 mM sodium orthovanadate and were incubated in the same medium for 1 h at 4° C. The cells were solubilized on ice in lysis buffer (150 mM NaCl, 10 mM Tris-HCl, pH 7.4, 1 mM EDTA, 1 mM EGTA, 0.5% Nonidet P-40, 1% Triton X-100) containing 1 mM sodium orthovanadate. The cells were then scraped from the culture dishes and the resulting lysates were clarified by centrifugation at 10,000 g for 10 min; Protein concentrations were determined using the micro bicinchoninic acid method (Pierce). For immunoprecipitation studies, lysates were clarified by a 1 h incubation at 4° C. with a mixture of Protein A/Protein G Sepharose beads. After removal of the Sepharose beads by low-speed centrifugation, identical amounts of protein (200 μg) from each sample were transferred to fresh tubes and incubated in lysis buffer overnight at 4° C. in the presence of 2 μg/ml of specific antibodies. Immunocomplexes were collected by incubating the mixture with 25 μl (50% suspension) of Protein A- (rabbit primary antibody) or Protein G- (mouse primary antibody) Sepharose beads, for 2 h. Nonspecifically-bound material was removed by washing the beads three times in 1 ml of lysis buffer containing 1 mM sodium orthovanadate, and bound material was solubilized in 25 μl of two-fold concentrated Laemmli sample buffer (125 mM Tris-HCl (pH 6.8), 20% glycerol, 4% SDS, 10% β-mercaptoethanol, and 0.00125% bromphenol blue), boiled 5 min, and resolved by SDS-PAGE. […] The immunoreactive bands were quantified by scanning densitometry (Molecular Dynamics).
The multifunctionality of VEGF at the cellular level results from its ability to initiate a diverse, complex and integrated network of signaling pathways via its major receptor, VEGFR-2. […] After each treatment, equal amounts of protein were immunoprecipitated with anti-VEGFR-2 polyclonal antibodies and analysed by Western blotting.

RhoA = RhoA gene and protein expression in U-87 cells (Western blot, RT-PCR); details: U-87, 300 ug/ml, 48 hrs
Protocol: Specific manipulation of the GTPase Rho activity can be used to suppress or enhance the organizational behaviour of endothelial cells as well as it can restrict cancer cells proliferation. In particular, RhoA mediates cell contractility by organizing actin filaments which consequently regulates cell migration. […] Tests were carried out in order to determine whether the PCK3145 derivative affected RhoA gene and protein expression. U-87 cells were either treated with the PCK3145 derivative (300 ug/ml, 48 hrs). Results of this experiment confirm that the PCK3145 derivative induced endogenous RhoA protein expression in U-87 cells as assessed by Western blotting (FIG. 11A, FIG. 11C).

With “EWQTDNCETCTCYET (cysteine pairing not given here) [PCK3145 derivative, PCK3145 derivative with acetylaminomethyl groups on the three cysteines]” the “ERK phosphorylation induced by VEGF” value (ERK) was “inhibitory effect was confirmed”, the “phosphorylation of VEGFR-2 induced by VEGF, dose dependence” value (VEGFR-2) was “dose-dependent” and the “phosphorylation of VEGFR-2 induced by VEGF” value (VEGFR-2; 300 μg/ml, 24 h) was “inhibited”. The “RhoA gene expression (RT-PCR)” value (RhoA) was “paralleled that of its gene expression” and the “endogenous RhoA protein expression (Western blotting)” value (RhoA) was “induced”.
